Experimental data as given in patent US9464120B2, “Compositions for treatment of celiac disease” (ImmusanT, Inc., priority 2008, dated 2016).
Square brackets hold non-standard residues; d marks the D form. Peptide text beside a SMILES is read from it. pGlu = O=C1CC[C@@H](C(=O)O)N1

Key:
[1] = system: gluten peptide-specific T cells in PBMC from HLA-DQ2+ celiac disease donors; assay: IFNγ ELISpot of PBMC collected on day 6 after oral gluten challenge; type: cell-based, human; details: for requirement for deamidation for T cell stimulation / dominance according to the grain consumed: second round libraries; for relative T-cell stimulatory activity: PBMC after wheat challenge, tTG pre-treated or glutamate substituted; for dominance according to the grain consumed: wheat, barley or rye gluten challenge; for activity relative to α-gliadin p57-73 QE65: pre-treated with tTG or with glutamate at position 9, 25 μg/ml, mean±SEM, n=5 donors; for donors with IFNγ ELISpot response: 9 HLA DQ2 celiac disease donors, PBMC day 6 after wheat gluten challenge, 17mer and 33mer at 5 μM
[2] = Pharmacokinetics after bolus intradermal injection in an adult rat; type: in vivo; details: rat, in vivo, 0.9 mg; for half-life: T1/2 half life
Method: To improve their chemical stability and increase resistance to exopeptidases, peptides were synthesised as acetate salts of “capped” N-pyroglutamate, C-amide: NPL001 (SEQ ID NO:228), NPL002 (SEQ ID NO:229) and NPL003 (SEQ ID NO:230) 15mers or 16mers with glutamate at sites predicted to be deamidated by tTG. Indeed, capping extended the half-lives of peptides from 10-12 minutes for free peptides: NPL033, NPL038, and NPL034 (SEQ ID NOs:13, 320 and 321) after bolus intradermal injection of 0.9 mg in 0.1 ml in an adult rat to 26-28 minutes with N-pyroglutamate and C-amidation (SEQ ID NOs:228, 229 and 230) or 19-24 minutes with N-acetylation and C-amidation (SEQ ID NOs:231, 232, and 233), (see Table 4).

Molecule: QGQPGYYPTSPQQIGQ (W22)
- requirement for deamidation for T cell stimulation [1]: Exceptions to the requirement for deamidation

Molecule: QPEQPFPQPEQPFPWQP (W03-E7)
- relative T-cell stimulatory activity [1]: equivalent in bioactivity
- dominance according to the grain consumed [1]: universal dominant T cell stimulatory peptide in gluten

Molecule: PQQPFPQPQLPFPQQSE (AAG17702 (141-157))
- activity relative to α-gliadin p57-73 QE65 [1]: 32±6%

Molecule: PQQPIPEQPQPYPQQP (B08-E7)
- dominance according to the grain consumed [1]: only after barley gluten challenge

Molecule: CC[C@H](C)[C@H](NC(=O)[C@@H]1CCCN1C(=O)[C@H](CCC(N)=O)NC(=O)[C@H](CCC(=O)O)NC(=O)[C@@H]1CCCN1C(=O)[C@@H](N)Cc1ccccc1)C(=O)N1CCC[C@H]1C(=O)N[C@@H](CCC(=O)O)C(=O)N[C@@H](CCC(N)=O)C(=O)N1CCC[C@H]1C(=O)N[C@@H](CCC(N)=O)C(=O)N1CCC[C@H]1C(=O)N[C@@H](Cc1ccc(O)cc1)C(=O)N1CCC[C@H]1C(=O)N[C@@H](CCC(N)=O)C(=O)N[C@@H](CCC(N)=O)C(=O)O [NPL034, FPEQPIPEQPQPYPQQ] (H-FPEQPIPEQPQPYPQQ-OH)
- half-life [2]: 10 to 12 min

Molecule: CC[C@H](C)[C@H](NC(=O)[C@@H]1CCCN1C(=O)[C@H](CCC(N)=O)NC(=O)[C@H](CCC(=O)O)NC(=O)[C@@H]1CCCN1C(=O)[C@@H]1CCC(=O)N1)C(=O)N1CCC[C@H]1C(=O)N[C@@H](CCC(=O)O)C(=O)N[C@@H](CCC(N)=O)C(=O)N1CCC[C@H]1C(=O)N[C@@H](CCC(N)=O)C(=O)N1CCC[C@H]1C(=O)N[C@@H](Cc1ccc(O)cc1)C(=O)N1CCC[C@H]1C(=O)N[C@@H](CCC(N)=O)C(=O)N[C@@H](CCC(N)=O)C(N)=O [NPL003, pyroEPEQPIPEQPQPYPQQ-amide] ([pGlu]PEQPIPEQPQPYPQQ-NH2)
- half-life [2]: 26 to 28 min

Molecule: GQGQSGYYPTSPQQSG (W29)
- requirement for deamidation for T cell stimulation [1]: Exceptions to the requirement for deamidation

Molecule: PQPQPFLPQLPYPQPQS (gluten derived peptide) [W09]
- relative T-cell stimulatory activity [1]: almost as active as 17mers encompassing DQ2-α-II

Molecule: CC(=O)N[C@@H](CCC(N)=O)C(=O)N[C@@H](CC(C)C)C(=O)N[C@@H](CCC(N)=O)C(=O)N1CCC[C@H]1C(=O)N[C@@H](Cc1ccccc1)C(=O)N1CCC[C@H]1C(=O)N[C@@H](CCC(N)=O)C(=O)N1CCC[C@H]1C(=O)N[C@@H](CCC(=O)O)C(=O)N[C@@H](CC(C)C)C(=O)N1CCC[C@H]1C(=O)N[C@@H](Cc1ccc(O)cc1)C(=O)N1CCC[C@H]1C(=O)N[C@@H](CCC(N)=O)C(=O)N1CCC[C@H]1C(=O)N[C@@H](CCC(N)=O)C(N)=O [NPL030, Ac-QLQPFPQPELPYPQPQ-amide] (Ac-QLQPFPQPELPYPQPQ-NH2)
- AUC area under the curve (bioavailability) [2]: AUC 43474
- T1/2 half life [2]: T1/2 19.4 minutes
- half-life [2]: 19 to 24 min

Molecule: QPFPQQPEQIIPQQ (gluten derived peptide) [SEQ ID NO:323]
- dominance according to the grain consumed [1]: only after rye gluten challenge

Molecule: QGQQGYYPISPQQSGQ (W21)
- requirement for deamidation for T cell stimulation [1]: Exceptions to the requirement for deamidation

Molecule: CC(=O)N[C@@H](CCC(N)=O)C(=O)N[C@@H](CCC(N)=O)C(=O)N1CCC[C@H]1C(=O)N[C@@H](Cc1ccccc1)C(=O)N1CCC[C@H]1C(=O)N[C@@H](CCC(N)=O)C(=O)N1CCC[C@H]1C(=O)N[C@@H](CCC(=O)O)C(=O)N[C@@H](CCC(N)=O)C(=O)N1CCC[C@H]1C(=O)N[C@@H](Cc1ccccc1)C(=O)N1CCC[C@H]1C(=O)N[C@@H](Cc1c[nH]c2ccccc12)C(=O)N[C@@H](CCC(N)=O)C(=O)N1CCC[C@H]1C(N)=O [NPL031, Ac-QQPFPQPEQPFPWQP-amide] (Ac-QQPFPQPEQPFPWQP-NH2)
- AUC area under the curve (bioavailability) [2]: AUC 80263
- T1/2 half life [2]: T1/2 22.9 minutes
- half-life [2]: 19 to 24 min

Molecule: CC[C@H](C)[C@H](NC(=O)[C@@H]1CCCN1C(=O)[C@H](CCC(N)=O)NC(=O)[C@H](CCC(=O)O)NC(=O)[C@@H]1CCCN1C(=O)[C@H](Cc1ccccc1)NC(C)=O)C(=O)N1CCC[C@H]1C(=O)N[C@@H](CCC(=O)O)C(=O)N[C@@H](CCC(N)=O)C(=O)N1CCC[C@H]1C(=O)N[C@@H](CCC(N)=O)C(=O)N1CCC[C@H]1C(=O)N[C@@H](Cc1ccc(O)cc1)C(=O)N1CCC[C@H]1C(=O)N[C@@H](CCC(N)=O)C(=O)N[C@@H](CCC(N)=O)C(N)=O [NPL032, Ac-FPEQPIPEQPQPYPQQ-amide] (Ac-FPEQPIPEQPQPYPQQ-NH2)
- AUC area under the curve (bioavailability) [2]: AUC 8206
- T1/2 half life [2]: T1/2 12.5 minutes
- half-life [2]: 19 to 24 min

Molecule: PQPQPFLPELPYPQPQS (gluten derived peptide) [SEQ ID NO:26]
- relative T-cell stimulatory activity [1]: almost as active as 17mers encompassing DQ2-α-II

Molecule: QYEVIRSLVRTLPNM (QYEVIRSLVLRTLPNM; W36)
- requirement for deamidation for T cell stimulation [1]: Exceptions to the requirement for deamidation

Molecule: NC(=O)CC[C@H](NC(=O)[C@@H]1CCCN1)C(=O)N[C@@H](CCC(N)=O)C(=O)N1CCC[C@H]1C(=O)N[C@@H](Cc1ccccc1)C(=O)N1CCC[C@H]1C(=O)N[C@@H](CCC(N)=O)C(=O)N1CCC[C@H]1C(=O)N[C@@H](CCC(=O)O)C(=O)N[C@@H](CCC(N)=O)C(=O)N1CCC[C@H]1C(=O)N[C@@H](Cc1ccccc1)C(=O)N1CCC[C@H]1C(=O)N[C@@H](Cc1c[nH]c2ccccc12)C(=O)N[C@@H](CCC(N)=O)C(=O)N1CCC[C@H]1C(=O)O [NPL038, PQQPFPQPEQPFPWQP] (H-PQQPFPQPEQPFPWQP-OH)
- AUC area under the curve (bioavailability) [2]: AUC 22393
- T1/2 half life [2]: T1/2 13.2 minutes
- half-life [2]: 10 to 12 min

Molecule: QLQPFPQPELPYPQPQL (variant of alpha-gliadin p57-73 QE65) [SEQ ID NO:46]
- donors with IFNγ ELISpot response [1]: 7 donors

Molecule: QPQQPFPQPEQPFPWQP (Q3 E10 variant) [SEQ ID NO:54]
- relative T-cell stimulatory activity [1]: optimal immunogenicity

Molecule: 15mer encompassing deamidated DQ2-γ-IV: deamidated 15mer encompassing the epitope DQ2-γ-IV SQPEQEFPQ reported for intestinal T cell clones [reference compound]
- donors with IFNγ ELISpot response [1]: One

Molecule: QLQPFPQPELPYPQPQP (gluten derived peptide) [SEQ ID NO:225]
- dominance according to the grain consumed [1]: dominant only after wheat gluten challenge

Molecule: CC(C)C[C@H](NC(=O)[C@H](CCC(=O)O)NC(=O)[C@@H]1CCCN1C(=O)[C@H](CCC(N)=O)NC(=O)[C@@H]1CCCN1C(=O)[C@H](Cc1ccccc1)NC(=O)[C@@H]1CCCN1C(=O)[C@H](CCC(N)=O)NC(=O)[C@@H](N)CC(C)C)C(=O)N1CCC[C@H]1C(=O)N[C@@H](Cc1ccc(O)cc1)C(=O)N1CCC[C@H]1C(=O)N[C@@H](CCC(N)=O)C(=O)N1CCC[C@H]1C(=O)N[C@@H](CCC(N)=O)C(=O)O [NPL033, LQPFPQPELPYPQPQ] (H-LQPFPQPELPYPQPQ-OH)
- AUC area under the curve (bioavailability) [2]: AUC 2618
- half-life [2]: 10 to 12 min

Molecule: PQQPFPQPELPFPQQSE (deamidated AAG17702 (141-157)) [SEQ ID NO:29]
- activity relative to α-gliadin p57-73 QE65 [1]: 32±6%

Molecule: LQLQPFPQPELPYPQPELPYPQPELPYPQPQPF (deamidated alpha2-gliadin 56-88) [33mer, reference compound]
- donors with IFNγ ELISpot response [1]: 7 donors

Molecule: PGQGQSGYYPTSPQQS (W24)
- requirement for deamidation for T cell stimulation [1]: Exceptions to the requirement for deamidation
